From the supplement of paper PMC10307832

How the values were obtained:
Assay in all cases: relative viability (nuclei count vs DMSO), 5 days (fraction); higher = more cells survive
Vandetanib + OSI-027 = compound: COc1cc2/c(=N/c3ccc(Br)cc3F)nc[nH]c2cc1OCC1CCN(C)CC1 [Vandetanib] + COc1cccc2cc(-c3nc([C@H]4CC[C@H](C(=O)O)CC4)n4ncnc(N)c34)[nH]c12 [OSI-027] (partner 0.5 µM)
Outline: (§1)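 Lung cancer cell lines, seeded in 1536-well plates, were treated the following day by pin tool with a single drug or with five library-drug doses (not always all listed) in √10 steps on top of a fixed anchor-drug dose. Cells were fixed and nuclei stained in one step after 5 days, and nuclei were counted. Relative viability is the nuclei count for treated wells divided by that for vehicle wells, reported as medians of duplicate plates.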

NVP-TAE684 + Vorinostat = compound: COc1cc(N2CCC(N3CCN(C)CC3)CC2)ccc1Nc1ncc(Cl)c(Nc2ccccc2S(=O)(=O)C(C)C)n1 [NVP-TAE684] + O=C(CCCCCCC(=O)Nc1ccccc1)NO [Vorinostat] (partner 1 µM)
Outline: as §1

Vandetanib + Vorinostat = compound: COc1cc2/c(=N/c3ccc(Br)cc3F)nc[nH]c2cc1OCC1CCN(C)CC1 [Vandetanib] + O=C(CCCCCCC(=O)Nc1ccccc1)NO [Vorinostat] (partner 1 µM)
Outline: as §1

[1] = compound: C1=CC=C2C(=C1)N=C(S2)C(C#N)C3=NC(=NC=C3)NCCC4=CN=CC=C4 + O=C(c1cc(Cc2n[nH]c(=O)c3ccccc23)ccc1F)N1CCN(C(=O)C2CC2)CC1 [Olaparib] (partner 8 µM)
Outline: as §1

| Cell Line | relative viability (Vandetanib + OSI-027; first compound 0.02 µM) | relative viability (Vandetanib + OSI-027; first compound 0.06325 µM) | relative viability (Vandetanib + OSI-027; first compound 0.2 µM) | relative viability (Vandetanib + OSI-027; first compound 0.6325 µM) | relative viability (Vandetanib + OSI-027; first compound 2 µM) | relative viability (NVP-TAE684 + Vorinostat; first compound 0.2 µM) | relative viability (NVP-TAE684 + Vorinostat; first compound 0.6325 µM) | relative viability (NVP-TAE684 + Vorinostat; first compound 2 µM) | relative viability (Vandetanib + Vorinostat; first compound 0.02 µM) | relative viability (Vandetanib + Vorinostat; first compound 0.06325 µM) | relative viability (Vandetanib + Vorinostat; first compound 0.2 µM) | relative viability (Vandetanib + Vorinostat; first compound 0.6325 µM) | relative viability (Vandetanib + Vorinostat; first compound 2 µM) | relative viability ([1]; first compound 0.005 µM) | relative viability ([1]; first compound 0.01581 µM) | relative viability ([1]; first compound 0.05 µM) | relative viability ([1]; first compound 0.1581 µM) | relative viability ([1]; first compound 0.5 µM) |
| --- | --- | --- | --- | --- | --- | --- | --- | --- | --- | --- | --- | --- | --- | --- | --- | --- | --- | --- |
| NCI-H1755 | 0.688 | 0.649 | 0.757 | 0.689 | 0.672 | 0.768 | 0.744 | 0.635 | 0.768 | 0.818 | 0.773 | 0.709 | 0.709 | 0.914 | 0.994 | 0.881 | 1.06 | 0.943 |
| H3255 | 0.655 | 0.459 | 0.455 | 0.417 | 0.227 | 0.855 | 0.757 | 0.667 | 0.763 | 0.704 | 0.808 | 0.507 | 0.644 | 0.55 | 0.594 | 0.603 | 0.575 | 0.534 |
| NCI-H441 | 0.551 | 0.619 | 0.713 | 0.643 | 0.566 | 0.972 | 0.688 | 0.56 | 0.781 | 0.702 | 0.8 | 0.767 | 0.821 | 0.423 | 0.643 | 0.544 | 0.683 | 0.455 |
| NCI-H1793 | 0.302 | 0.25 | 0.238 | 0.292 | 0.274 | 1.14 | 0.575 | 0.878 | 0.716 | 0.618 | 0.651 | 0.648 | 0.624 | – | 0.931 | 0.781 | 0.995 | 0.804 |
| LK-2 | 0.243 | 0.213 | 0.203 | 0.197 | 0.227 | 0.271 | 0.219 | 0.215 | 0.31 | 0.311 | 0.341 | 0.265 | 0.365 | 0.645 | 0.804 | 0.63 | 0.754 | 0.766 |
| SW 1573 | 0.508 | 0.57 | 0.653 | 0.634 | 0.534 | 0.745 | 0.636 | 0.346 | 0.635 | 0.674 | – | 0.957 | 0.751 | 0.337 | 0.491 | 0.496 | 0.508 | 0.484 |
| HCC-78 | 0.374 | 0.39 | 0.42 | 0.364 | 0.361 | 0.316 | 0.411 | 0.23 | 0.5 | 0.481 | 0.418 | 0.505 | 0.346 | 0.852 | 0.935 | 0.816 | 0.936 | 0.756 |
| SK-MES-1 | 0.678 | 0.559 | 0.691 | 0.618 | 0.448 | 0.977 | 1.09 | 0.88 | 1.05 | 0.916 | 1.1 | 0.949 | 0.795 | 0.821 | 0.76 | 0.617 | 0.798 | 0.569 |
| NCI-H2023 | 0.375 | 0.34 | 0.429 | 0.37 | 0.41 | 0.646 | 0.634 | 0.102 | 0.563 | 0.516 | – | 0.561 | 0.489 | 0.508 | 0.543 | 0.562 | 0.541 | 0.447 |
